Laboratory results reported in US11059815B2, “Synthesis of small molecule histone deacetylase 6 degraders, compounds formed thereby, and pharmaceutical compositions containing them” (Wisconsin Alumni Research Foundation, priority 2018, dated 2021).

Columns and labels:
[1] = test system: acetylated tubulin; experiment: Western blot of acetylated tubulin in MM1S cells; type: cell-based, human; conditions: 100 nM
Description: (§1) FIGS. 12A, 12B, and 12C are a series of western blots showing that degrader 12d selectively promotes HDAC6 degradation in MM1S cells.
To further examine the selectivity of the new generation of HDAC6 degraders, compound 12d was compared to SAHA, Next-A, degrader 1 and pan-inhibitor 2 for change of acetylated a-tubulin and acetylated histone H3.
When the cells reached 90% confluence, they were harvested and plated 1×10^6 cells per well in 6-well plate. After overnight seeding, the cells were treated with a solution of compounds or vehicle in culture medium. The culture medium was removed after treatment and then washed twice with cold PBS. To obtain whole cell lysate, all cells were treated with RIPA lysis buffer (25 mM Tris, pH 7-8, 150 mM NaCl, 0.1% SDS, 0.5% sodium deoxycholate, 1% Triton X-100, protease inhibitor cocktail (Roche, 1 tablet per 10 mL) and 1 mM PMSF) on ice for 10 minutes. Supernatant was collected after spinning down at 16,000 g at 4° C. for 15 minutes. Protein concentration was measured by using the Pierce BCA protein assay (Thermo Fisher Scientific). About 10-40 μg of total protein was mixed with 4× Laemmli Loading Dye (250 mM Tris, pH 6.8, 40% glycerol, 5% SDS, 0.005% bromophenol blue, 4% BME) and heated at 95-100° C. for 5 minutes. The heated sample was then subjected to 7.5-12% SDS-PAGE and transferred to PVDF membrane (Bio-Rad,). The membrane was blocked in 5% non-fat milk (Bio-rad) in TBS-T washing buffer (137 mM NaCl, 20 mM Tris, 0.1% Tween) and then incubated with primary antibodies at 4° C. overnight. […] The Immunoblot was generated by ChemiDoc MP Imaging Systems (Bio-Rad) and analyzed by Image J software (only available for download online at https://imagej.net/Downloads). […]
The activity of all eleven “n+4” VHL-based potential degraders to suppress HDAC6 expression was tested at 100 nM and compared to CRBN degrader 2 in MM1S cells. The resulting cells were analyzed for HDAC6 expression by in-cell ELISA (FIG. 15). […]

[2] = biological target: T1, HDAC1 (Homo sapiens, UniProt Q13547); experiment: Western blot of HDAC1 in MM1S cells (time course); type: cell-based; conditions: 100 nM
T1 construct: endogenous in cells; host or cells: MM1S
Description: as §1
To probe the efficiency of 12d, MM1S was treated with 100 nM 12d and the change of HDAC6 protein level was monitored by time. The HDAC6 degradation started around 1 h and reached maximal degradation effect at 4 h. The degradation of IKZFs was only observed after 4 h. Meanwhile, HDAC1 was not affected and the acetylation of tubulin was accumulated by time. To study the re-synthesis rate of HDAC6 after degradation, “wash-out” experiments were performed (data not shown). Cells were treated with 100 nM 12d for 6 h and then washed with PBS to remove remaining degraders. HDAC6 expression was monitored for 48 h. […] Selected degraders were also tested in other cell lines and they are effective among all tested cancer cell lines.
When the cells reached 90% confluence, they were harvested and plated 1×10^6 cells per well in 6-well plate. After overnight seeding, the cells were treated with a solution of compounds or vehicle in culture medium. […] Protein concentration was measured by using the Pierce BCA protein assay (Thermo Fisher Scientific). […] The Immunoblot was generated by ChemiDoc MP Imaging Systems (Bio-Rad) and analyzed by Image J software (only available for download online at https://imagej.net/Downloads). […]

T1 sequence (Q13547 whole entry): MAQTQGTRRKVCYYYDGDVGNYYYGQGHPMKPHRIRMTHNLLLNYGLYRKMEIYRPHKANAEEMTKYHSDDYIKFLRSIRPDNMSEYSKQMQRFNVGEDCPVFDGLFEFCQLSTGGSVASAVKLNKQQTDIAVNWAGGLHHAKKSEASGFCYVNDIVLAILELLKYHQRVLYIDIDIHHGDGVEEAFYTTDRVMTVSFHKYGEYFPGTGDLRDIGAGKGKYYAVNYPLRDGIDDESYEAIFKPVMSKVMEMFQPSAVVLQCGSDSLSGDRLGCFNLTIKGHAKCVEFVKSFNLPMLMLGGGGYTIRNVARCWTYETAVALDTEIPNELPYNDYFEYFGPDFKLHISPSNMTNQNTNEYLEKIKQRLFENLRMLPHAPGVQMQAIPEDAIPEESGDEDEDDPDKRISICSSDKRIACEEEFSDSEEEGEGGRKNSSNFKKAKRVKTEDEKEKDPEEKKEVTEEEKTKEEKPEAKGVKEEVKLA

effect on HDAC1 [2]	SMILES	change of acetylated tubulin [1]
–	CCCCN(Cc1ccc(C(=O)NO)cc1)C(=O)Nc1ccccc1 [Next-A, 4-[[butyl[(phenylamino)carbonyl]amino]methyl]-N-hydroxy-benzamide, reference compound]	didn't
not affected	CCCCN(Cc1ccc(C(=O)NO)cc1)C(=O)Nc1ccc(OCCCCCn2cc(CNc3cccc4c3C(=O)N(C3CCC(=O)NC3=O)C4=O)nn2)cc1 (stereo not drawn) [Compound 12d, 4-((1-butyl-3-(4-((5-(4-(((2-(2,6-dioxopiperidin-3-yl)-1,3-dioxoisoindolin-4-yl)amino)methyl)-1H-1,2,3-triazol-1-yl)pentyl)oxy)phenyl)ureido)methyl)-N-hydroxybenzamide]	increased
